The values below come from a melting point compilation (Tetko et al.).

A word on the melting point: it is the temperature of the solid-liquid transition. Molecule `CC(C)(C)OC(=O)n1cc(C(=O)O)c2cc(Br)ccc21` returned a melting point of 206 to 209 °C.

As to `CC1(O)Cc2ccccc21` (stereo not drawn), the melting point amounted to 78 °C. As for `O=NN1CCOCC1`, the melting point came to 29 °C.

Turning to `NS(=O)(=O)c1ccc(C(F)(F)F)cc1`, the melting point was 180 °C. The molecule `COc1ccc(C(=O)CBr)c(OC)c1` returned a melting point of 104 °C. `C=CC(Cl)(Cl)Cl` returned a melting point of -30 °C. Molecule `Cc1cc(C)c(C2(C)CC(C(=O)c3cc4ccccc4o3)C2)c(C)c1` (stereo not drawn) registered a melting point of 147 to 148 °C. In the case of `CCOC=C(C#N)S(=O)(=O)c1ccc(Cl)cc1`, the melting point was 121 to 124 °C. `O=[N+]([O-])c1ccc(-c2nnc(S)s2)o1` displayed a melting point of 175 to 177 °C. The result for `O=[N+]([O-])c1cccc2c1cnn2C1CC(O)C(CO)O1` (stereo not drawn) reads 140 °C; that for `CC1OC(OC2C(Oc3cc(O)c4c(c3)OC(c3ccc(O)cc3)CC4=O)OC(CO)C(O)C2O)C(O)C(O)C1O` (stereo not drawn), 166 °C. The result for `N#CCCn1c(=O)oc2ccccc21` reads 118 to 120 °C; that for `N#Cc1cccc(-c2cccs2)c1`, 58 to 60 °C; that for `CC(=O)c1ccc(I)s1`, 128 °C.

`CC(=O)c1c(Cl)cccc1Cl`: the melting point was 43 °C.

In turn, `CC(=O)NNC(N)=S` returned a melting point of 165 to 170 °C. Regarding `O=S(=O)(Cl)c1ccc(-c2ccc(F)cc2)cc1`, the melting point is 82 to 84 °C. Consider `NNC(=O)C(N)=O`, for which the melting point is 216 to 218 °C. Molecule `CCOC(=O)c1cc2cc(F)ccc2[nH]1` returned a melting point of 150 °C.

For `CCCCOc1c(-c2nnc(-c3ccc(Cl)cc3)o2)sc(-c2nnc(-c3ccc(Cl)cc3)o2)c1OCCCC`, the melting point was determined as 178 °C. As for `CCC(=O)c1cccc(C(F)(F)F)c1`, the figure is 19 °C.

Take `O=C1C(Cl)=C(Cl)C(=O)C(Cl)=C1Cl`: the melting point is 290 °C. As for `O=CC(F)(F)C(F)(F)C(F)(F)C(F)(F)C(F)(F)C(F)(F)C(F)(F)C(F)(F)Cl`, the figure is 36 to 38 °C; as for `O=C(Cl)c1ccc(Br)cc1F`, 25 °C. With `CCOCCC(OCC)OCC`, the melting point stood at 53 °C. In turn, `Cc1c(-c2ccccc2)oc(-c2ccccc2)c(C)c1=O` yielded a melting point of 144 °C.

`O=C(CBr)OCc1ccc([N+](=O)[O-])cc1`: the melting point came out at 50 °C. The result for `CCNC(C)Cc1cccc(C(F)(F)F)c1` (stereo not drawn) reads 110 °C. The molecule `O=C(Cc1ccccc1)c1ccc2c3c(ccc([N+](=O)[O-])c13)CC2` registered a melting point of 189 °C. With `Fc1cc(F)c(Br)c(F)c1`, the melting point was 4 °C. `N#CO` returned a melting point of -86 °C. In turn, `COc1cc2c(c(O)c1OC)C(C)NCC2` (stereo not drawn) registered a melting point of 160 °C. With `NNC(=O)c1snnc1-c1ccccc1`, the melting point lay within 129 to 130 °C. In turn, `CCOC(=O)/C(C#N)=C/c1ccc(-c2ccc([N+](=O)[O-])cc2)o1` yielded a melting point of 238 °C. The result for `O=C(n1ccnc1)C(F)(F)C(F)(F)C(F)(F)F` reads 11 °C; that for `Cc1ccccc1-c1cc2ccccc2c(=O)o1`, 86 °C. `Cc1cccc(OCC(O)CNC(C)(C)C)c1C` (stereo not drawn): the melting point was found to be 57 °C.

Molecule `O=C(CCCl)N1CCc2ccccc21` displayed a melting point of 83 to 85 °C. Molecule `CC12CCC(CC(Br)c3ccccc3)(OC1=O)C2(C)C` (stereo not drawn) yielded a melting point of 206 °C.

Turning to `CN[C@@H](Cc1c[nH]c2ccccc12)C(=O)O`, the melting point was 295 °C. `NC(=O)C12CCN(CC1)CC2` came in with a melting point of 235 to 237 °C.

The molecule `O=C1c2ccc([N+](=O)[O-])cc2C(=O)N1CCCBr` gave a melting point of 104 to 107 °C.

With `O=C(CCCCC(=O)NCCCC(=O)ON1C(=O)CCC1=O)NCCCC(=O)ON1C(=O)CCC1=O`, the melting point was 145 °C.

`CCC(C)c1cc([N+](=O)[O-])cc([N+](=O)[O-])c1OC(C)=O` (stereo not drawn) yielded a melting point of 26 °C. As for `CCCc1cc(C)cc(C)c1`, the figure is -59 °C. The molecule `CCOC(=O)c1c(Cl)c(Cl)c(Cl)c(Cl)c1C(=O)O` displayed a melting point of 94.5 °C. `C1CCCCCCCCC1`: the melting point turned out to be 10 °C. In the case of `O=C(O)c1cccc(-c2cnco2)c1`, the melting point fell in the range of 259 to 261 °C. As for `Brc1cccc2cn[nH]c12`, the melting point was 128 °C. With `Cc1cc(Cl)ccc1Oc1ncccc1[N+](=O)[O-]`, the melting point lay in the range of 89 to 91 °C. In turn, `CC1(C)C(=O)OC2=C(CCCC2)C1c1ccccc1` (stereo not drawn) gave a melting point of 95 °C. For the molecule `CC(=O)Cc1ncn(-c2cc(C)on2)n1`, the melting point was 138 to 140 °C. Take `CC1(C)OCC(CO)O1` (stereo not drawn): the melting point was -27 °C. Turning to `COc1cccc(C=C[N+](=O)[O-])c1`, the melting point was in the range of 91 to 93 °C. Take `CCOC(=O)c1c(SC)nn(C(=O)c2ccc([N+](=O)[O-])cc2)c1N`: the melting point was found to be 158 °C. `NCC(O)C(=O)O` (stereo not drawn) showed a melting point of 235 °C. The molecule `CCCCCCCNC(=O)OCC1OC(OC)C(O)C(O)C1O` (stereo not drawn) registered a melting point of 103 to 105 °C. Regarding `O=C(O)c1cc(O)c2cccc(O)c2n1`, the melting point lay in the range of 297 to 298 °C. The molecule `Cc1cc(C)c(CSCc2c(C)cc(C)cc2C)c(C)c1` had a melting point of 145 to 146 °C. The result for `CCCCCN=C(N)NNC=C1C=Nc2ccc(CO)cc21` reads 155 °C.

Consider `NC(=O)CN(CC(=O)O)CC(=O)O`, for which the melting point stood at 219 °C. Take `CCCCCCCCCCCCCCCCCCCCCC1CCCC1`: the melting point was 42 °C.

`C#CCCCCCCCC#C` displayed a melting point of -17 °C. Consider `C=CCSc1ncccc1C(=O)O`, for which the melting point lay in the range of 147 to 149 °C. `Oc1ccc2c(c1)C13CCCCC1C(C2)N(CC1CC1)CC3` (stereo not drawn): the melting point is 188 °C. Turning to `CCOC(=O)c1c(-c2ccccc2)csc1N`, the melting point is 92 °C. Take `O=Cc1cccc(Br)c1`: the melting point turned out to be 20 °C. Regarding `O=C1OC(OC2OC(=O)C(Cl)=C2Cl)C(Cl)=C1Cl` (stereo not drawn), the melting point was 142 °C. The molecule `Clc1ccc(Br)s1` gave a melting point of -20 °C. The result for `Cc1cc(C)c2c(=O)n3c(cc2c1)CCCC3` reads 62 °C; that for `Cc1cc(S(N)(=O)=O)ccc1Br`, 151 °C; that for `O=c1c(Nc2ccccc2)c(Nc2ccccc2)c1=O`, 270 °C. With `O=C(O)c1ccccc1-n1cccc1`, the melting point came out at 104 °C. As to `NC(=S)c1ccccc1Br`, the melting point lay within 83 to 85 °C. Consider `CCC1CC(=O)CC(C)(C)N1O` (stereo not drawn), for which the melting point was in the range of 33 to 38 °C.

`FC(F)(F)COCC(F)(F)F` returned a melting point below 25 °C. For `NS(=O)(=O)c1cnccc1Cl`, the melting point was 150 to 155 °C. In turn, `N#Cc1ccc2c(c1)N(CCCN1CCC(O)CC1)c1ccccc1S2` showed a melting point of 116 °C. Regarding `C=C(Br)c1ccccc1`, the melting point was -44 °C.

Molecule `Clc1c(Cl)c(Cl)c2c(c1Cl)OC(c1ccccc1)(c1ccccc1)O2` yielded a melting point of 153 °C.

In turn, `CC1(O)CC(c2ccccc2)C([N+](=O)[O-])C(c2ccccc2N)O1` (stereo not drawn) displayed a melting point of 148 °C. The result for `O=C1CCC(c2ccc(NC(=O)CCl)cc2)=NN1` reads 220 to 223 °C. As to `CCOC(=O)CSc1c(C)[nH]c2ccccc12`, the melting point is 72 to 75 °C.

As to `COc1cc2c(cc1OC)C(CO)NCC2` (stereo not drawn), the melting point lay in the range of 135 to 139 °C. As for `Brc1ccc2[nH]c3ccccc3c2c1`, the figure is 195 to 197 °C; as for `COc1ccc(C(N)=O)c(Cl)c1OC`, 165 to 168 °C. The result for `Clc1cc(Cl)nc(Cc2ccccc2)n1` reads 56 to 57 °C. Molecule `COC(=O)C1=C(C(=O)OC)C(=O)C(=C2C=Cc3ccccc3N2)C1=O` returned a melting point of 362 to 363 °C.

In the case of `O=C(O)c1cc(I)cc(I)c1I`, the melting point is 223 to 228 °C. As for `O=C(CCl)NC1CC1`, the melting point was determined as 82 °C. Molecule `CCOC(=O)c1c(NC(=O)CN2CCN(C(=O)OCC)CC2)sc2c1CCCC2` gave a melting point of 122 to 123 °C. Turning to `O=C(Nc1ccccn1)c1ccccc1Cl`, the melting point was 137 to 139 °C. In turn, `Cc1cccc(OCC(=O)O)c1C` showed a melting point of 186 to 190 °C. Molecule `Nc1c(Br)cc(Br)cc1C(F)(F)F` showed a melting point of 42 °C. Take `O=C(c1ccc(O)cc1)c1ccc(O)cc1`: the melting point is 223 °C. The result for `CCOc1cc2c(cc1OCC)C(CC(=O)O)NCC2` (stereo not drawn) reads 259 to 260 °C; that for `NS(=O)(=O)c1ccc(C(=O)O)cc1`, 266 to 268 °C; that for `O=C(O)/C=C/c1cccc2c(Br)ccc([N+](=O)[O-])c12`, 141 to 142 °C.

Molecule `COc1cccc2cc(C(=O)c3cc4ccccc4o3)oc12` displayed a melting point of 154 to 155 °C. For the molecule `CC(C)OC(=O)OOC(=O)OC(C)C`, the melting point amounted to 10 °C. Turning to `CCCSc1ccc2[nH]c(NC(=O)OC)nc2c1`, the melting point stood at 208 °C. The molecule `O=CNNC=O` showed a melting point of 156 °C. Regarding `CC(=O)c1cc(-c2ccc(Cl)c(Cl)c2)no1`, the melting point lay in the range of 130 to 132 °C. For `O=c1cnn(C2OC(CO)C(O)C2O)c(=O)[nH]1` (stereo not drawn), the melting point worked out at 158 °C. In the case of `OCc1ccc(-c2nccs2)cc1`, the melting point fell in the range of 94 to 97 °C. In turn, `CCOC(=O)c1ccccc1` displayed a melting point of -34 °C.

As for `CCCCCC(O)c1ccc(O)c(O)c1` (stereo not drawn), the melting point stood at 109 °C. For the molecule `Cc1ccc2nc(C(F)(F)F)cc(Cl)c2c1`, the melting point fell in the range of 62 to 65 °C. The molecule `O=S(=O)(c1ccccc1)n1ccc2cc(Br)ccc21` came in with a melting point of 90 to 93 °C.

The molecule `Cc1nc(-c2ccc(C(F)(F)F)cc2)sc1CBr` yielded a melting point of 64 to 65 °C. `CN(C)c1ccc(/C=C(/C#N)C(N)=S)cc1` registered a melting point of 189 °C. In turn, `O=C1CCCC2=C1[C@@H](c1cccc([N+](=O)[O-])c1)[C@@H]1C(=O)CCC[C@@]1(O)O2` displayed a melting point of 219 °C. Take `CSc1cc2c(c3c1CCOc1ccccc1-3)c(=O)n(-c1ccccc1)n2C`: the melting point was 176 °C.
